“Also recorded” adds a separate entry of the source.

In series [1] the test system is human normal cells (GM05757). Put plainly: In vitro toxicity in human normal cells, 72-hr treatment, MTT assay. The class given is cell-based. To be noted: GM05757, 72-hr treatment, without ionizing radiation, 0-50 μM cisplatin, 0-200 μM compounds. The source says:
(§1) Dibromo-diamino-benzene (Dibromo-phenylenediamine, Compound B) was obtained from TCI-America. Diiodo-diaminobenzene (Compound C) were synthesized, purified and crystallized in our laboratory, and the structures and purity were examined by NMR and mass spectrometry. MEM and fetal bovine serum (FBS), penicillin G and streptomycin were obtained from Hyclone Laboratories (UT, USA). Stock solution of cisplatin was freshly prepared in ultrapure water or saline, and stock solutions of Compounds A, B, C, D were prepared in pure ethanol, where the final concentration of ethanol was ≦1% when treated to cells.
A human skin diploid fibroblast (GM05757 cell line) was obtained from the Coriell Cell Repository directly. Fetal bovine serum (FBS) was obtained from Hyclone Laboratories (UT, USA). The GM05757 normal cells were cultivated with MEM (Hyclone) supplemented with 10% FBS, 100 units/mL penicillin G and 100 μg/mL streptomycin (Hyclone). The cells were maintained at 37° C. in a humidified atmosphere containing 5% CO2.
(§2) The radiosensitizing effects of RSCs on cell viability were determined by the 3-[4,5-dimethylthiazol-2-yl]-2,5-diphenyl tetrazoliumbromide (MTT) assay. Cells were cultured in 96-well plates (5×10^3 cells/well) for 24 h. The culture medium was replaced by fresh culture medium and incubated for 72 h with varying drug concentrations. The MTT assay of cell viability was then conducted. Briefly, 100 μl new medium without phenol red containing 1.2 mM MTT (sigma) (i.e., adding 10 μl 12 mM MTT stock solution in PBS) were added to each well and incubated for 4 h. The medium was then removed, and the formazan crystals solubilized by 100 μL/well DMSO (or alternatively by 100 μl/well SDS and incubated for another 4 h). The surviving fraction was determined by measuring the absorbance at 540 nm (570 nm for SDS solubilization) using a Multiskan Spectrum UV/Vis microplate reader (Thermo Scientific), which is directly proportional to the number of viable cells.

The subject of series [2] is human cervical cancer (ME-180) cells. The series can be described thus: In vitro radiosensitizing effect, MTT assay 6 days after X-ray, ME-180. The class given is cell-based.
Text: as §1, with “TCI—America.” for “TCI-America.”
(§3) A human skin diploid fibroblast (GM05757 cell line) was obtained from the Coriell Cell Repository directly, while the human cervical cancer cell line (HeLa, ATCC#: CCL-2; or ME-180), human ovarian cancer cell line (NIH:OVCAR-3, ATCC#: HTB-161) and human lung cancer cell line (A549, ATCC#: CCL-185™), together with RPMI 1640, F-12K, McCoy's 5 A and L-15 culture media, were obtained from the American Type Culture Collection (ATCC) directly. Fetal bovine serum (FBS) was obtained from Hyclone Laboratories (UT, USA). The GM05757 normal cells and HeLa cells were cultivated with MEM (Hyclone) supplemented with 10% FBS, 100 units/mL penicillin G and 100 μg/mL streptomycin (Hyclone). The complete growth media for ME-180, NIH:OVCAR-3, A549 and MDA-MB-231 cells were the ATCC-formulated McCoy's 5 A Medium supplemented with 10% FBS, RPMI 1640 medium with 20%, F-12K medium with 10% FBS, and L-15 Medium (Leibovitz) with 10% FBS, respectively. The cells were maintained at 37° C. in a humidified atmosphere containing 5% CO2.
as §2, with “12” for “72”, “concentrations. The cells were then irradiated by 225 kV X-ray (PRECISION X-RAD IR 225) at a dose rate of 2 Gy/min with various X-ray doses. After irradiation, the cells were incubated for 6 days.” for “concentrations.”
In general terms: Formazan colour is commonly taken as a measure of viable cells.

Series [3] deals with various human cancer cells. The series can be described thus: In vitro radiosensitizing effects in various human cancer cells (FIG. 14-21). The class given is cell-based. To be noted: 12 hr treatment, then various doses of 225 keV X-ray.
Text: as §1, with “TCI—America.” for “TCI-America.”
as §3
as §2, with “12” for “72”, “concentrations. The cells were then irradiated by 225 kV X-ray (PRECISION X-RAD IR 225) at a dose rate of 2 Gy/min with various X-ray doses. After irradiation, the cells were incubated for 6 days.” for “concentrations.”

Series [4] has as its system human cervical cancer (ME-180) xenograft. Put plainly: Xenograft mouse tumor model of human cervical cancer (ME-180) in female SCID mice. The class given is in vivo. The method, then: The four groups in the experiment were: (1) control article (5% EtOH/medium); (2) 15 Gy X-ray irradiation; (3) Compound B at 7 mg/kg in 5% EtOH/medium and (4) Compound B at 7 mg/kg in 5% EtOH/medium plus 15 Gy X-ray irradiation, as shown in Table 2.
ME-180 (human cervical cancer) cells were cultured in the ATCC-formulated McCoy's 5 A Medium supplemented with 10% FBS. The cells in a flask were maintained at 37° C. in a humidified atmosphere containing 5% CO2. The cells were rinsed with PBS, trypsined for detachment from the bottom of the flask, mixed with fresh growth medium, and centrifuged to remove the supernatant. The cells were re-suspend with fresh medium to appropriate concentration for inoculation. Injection volume was 50 μl (1×10^6 cells) per animal.
ME-180 tumour cells were implanted subcutaneously into female SCID mice (age 6-8 weeks) in a volume of 50 μL into the left gastrocneumius muscle using a 27-gauge needle. This was established as a subcutaneous (SC) xenograft mouse model of human cervical cancer.
Mice were individually weighed and injected intraperitoneally according to body weight for an injection concentration as outlined in the study group table above. The injection volume was based on 200 μL per 20 g mouse. The skin surface was wiped down with 70% isopropyl alcohol to clean the injection site. Radiation was given using X-rad 225 targeted irradiator to the tumors.
Tumor size was measured as a function of time to assess tumor growth delay associated with treatment using slide caliper and […]. Animals were also weighed at the time of tumour measurement. Tumours in mice were allowed to grow to a maximum of 1000 mm^3 before termination.

On to `Nc1cc(Br)c(Br)cc1N` [Compound B, 4,5-dibromo-1,2-phenylenediamine], for which, in series [1], the “toxicity toward human normal cells” value is given as “essentially no toxicity; also recorded: little toxicity up to 200 μM”. Also, in series [2] (ME-180, 12-hr treatment, 0-10 Gy 225 keV X-ray, MTT at 6 days), the “enhancement of radiosensitivity of cancer cells to X-ray” value is listed as “significant enhancement in the radiosensitivity”. Moreover, the “killing of cancer cells” value in series [2] (ME-180, 50 Gy x-ray with about 100 μM compound, about 20% survived without any RSC) is given as “early all cancer cells were killed”. The “killing of cancer cells in combination with radiation” value in series [3] is “enhanced the killing of cancer cells in a radiation dose dependent manner and in synergy with radiation; also recorded: enhances the effectiveness of ionizing radiation to kill tumor cells”. Also, the “suppression of tumor growth” value in series [4] (7 mg/kg IP 1 hr prior to 15 Gy 225 keV x-ray, versus radiation or compound only) is “significantly enhanced the suppression of tumor growth”. For the same molecule, the tumor growth delay result in series [4] (7 mg/kg plus 15 Gy x-ray, single doses) was “very significant tumor growth delay in vivo till 21 days”. Moreover, in series [4] (7 mg/kg plus 15 Gy x-ray, tumor volumes and MRI, Day 21), the “shrinkage of the tumor” value is listed as “significant shrinkage of the tumor in mice; also recorded: most significant shrinkage of the tumor in mice”.

Source of the values: patent US9655965B2, “Radiosensitizer compounds for use in combination with radiation” (priority 2013, dated 2017).
